{"source": "patent US20100094009A1", "about": "“NOVEL CRYSTALLINE COMPOUND USEFUL AS GLK ACTIVATOR” (priority 2006, published 2010)", "type_in_all_cases": "physicochemical", "key": {"[1]": {"assay": "Conversion of the crystalline form in aqueous media"}, "[2]": {"assay": "Competitive slurries of Form A and Form B in a range of solvents", "description": "Form B also has a much higher melting endotherm."}, "[3]": {"assay": "Solubility profile of solid forms"}}}
{"molecule": "CC(C)Oc1cc(Oc2cnc(C(=O)N3CCC3)cn2)cc(C(=O)Nc2cc[nH]n2)c1", "note": "[Form A, 3-{[5-(Azetidin-1-ylcarbonyl)pyrazin-2-yl]oxy}-5-[(1-methylethyl)oxy]-N-1H-pyrazol-3-ylbenzamide]", "values": [{"measurement": "conversion to other solid forms in aqueous media", "setting": "[1]", "value": "convert to the amorphous form"}]}
{"molecule": "CC(C)Oc1cc(Oc2cnc(C(=O)N3CCC3)cn2)cc(C(=O)Nc2cc[nH]n2)c1", "note": "[Form A′, 3-{[5-(azetidin-1-ylcarbonyl)pyrazin-2-yl]oxy}-5-[(1-methylethyl)oxy]-N-1H-pyrazol-3-ylbenzamide]", "values": [{"measurement": "conversion to other solid forms in aqueous media", "setting": "[1]", "value": "convert to the amorphous form"}]}
{"molecule": "CC(C)Oc1cc(Oc2cnc(C(=O)N3CCC3)cn2)cc(C(=O)Nc2cc[nH]n2)c1", "note": "[Form B, 3-{[5-(azetidin-1-ylcarbonyl)pyrazin-2-yl]oxy}-5-[(1-methylethyl)oxy]-N-1H-pyrazol-3-ylbenzamide]", "values": [{"measurement": "relative stability of crystalline forms in competitive slurries", "setting": "[2]", "value": "most stable form"}, {"measurement": "conversion to other solid forms in aqueous media", "setting": "[1]", "value": "does not significantly convert to other forms"}]}
{"molecule": "CC(C)Oc1cc(Oc2cnc(C(=O)N3CCC3)cn2)cc(C(=O)Nc2cc[nH]n2)c1", "note": "[amorphous form, 3-{[5-(azetidin-1-ylcarbonyl)pyrazin-2-yl]oxy}-5-[(1-methylethyl)oxy]-N-1H-pyrazol-3-ylbenzamide]", "values": [{"measurement": "solubility profile compared with Form A", "setting": "[3]", "value": "different solubility profile"}]}
